Test results reported in patent US11279714B2, “Anti-infective compounds” (priority 2014, dated 2022).
Values after ≈ are worked out from the molar mass of the structure shown.

Tests used:
[1] = test system: Raw 264.7 cells infected with H37Rv-GFP; assay: microbe, parasite or virus in culture; type: cell-based, M. tuberculosis; conditions: for MIC50: Mycobacterium tuberculosis, H37RV, 120 h, read-out: QIM (MIC50)
[2] = test system: M. tuberculosis H37Rv expressing the green fluorescent protein (H37Rv-GFP); assay: microbe, parasite or virus in culture; type: cell-based; conditions: for MIC50: Mycobacterium tuberculosis, H37RV, 120 h, read-out: QUM (MIC50)

| Structure (SMILES) | MIC50 [1] [µM] | MIC50 [2] [µM] | QIM (MIC50, uM) [1] | QUM (MIC50, uM) [2] |
| --- | --- | --- | --- | --- |
| COc1ccc(NC(=O)c2cc3sc(N4CCC(O)C4)nc3s2)cc1 (stereo not drawn) [Compound 130] | < 1 | 1 to 20 (≈ 0.375 to 7.51 µg/mL) | – | – |
| Cc1nc2cc(NC(=O)c3cc4sc(N5CC[C@@H](C(=O)Nc6ccc7nc(C)oc7c6)C5)nc4s3)ccc2o1 [Compound 222] | < 1 | 1 to 20 (≈ 0.559 to 11.2 µg/mL) | – | – |
| CC(C)(C)CC(=O)NC1CCN(c2nc3sc(C(=O)Nc4ccc(-c5ccc(F)nc5)cc4)cc3s2)CC1 [Compound 348] | < 1 | > 20 | – | – |
| CN(C)C(=O)C1CCN(c2nc3sc(C(=O)Nc4ccc(-c5ccc(F)nc5)cc4)cc3s2)CC1 [Compound 216] | < 1 | < 1 | – | – |
| Cc1nc2cc(NC(=O)c3cc4sc(N5CCC(Cc6ccc(Cl)cc6)CC5)nc4s3)ccc2o1 [Compound 236] | < 1 | > 20 | – | – |
| Cc1nc2cc(NC(=O)c3cc4sc(N5CCC(Oc6ccc(Cl)cc6)CC5)nc4s3)ccc2o1 [Compound 207] | < 1 | 1 to 20 (≈ 0.525 to 10.5 µg/mL) | – | – |
| O=C(Nc1ccc(F)cn1)c1cc2sc(N3CCNCC3)nc2s1 [Compound 342] | < 1 | 1 to 20 (≈ 0.363 to 7.27 µg/mL) | – | – |
| O=C(Nc1ccc(OCc2ccccc2)cc1)c1cc2sc(N3CCCCC3)nc2s1 [Compound 44] | < 1 | > 20 | – | – |
| Cc1nc2cc(NC(=O)c3cc4sc(N(C)CCN5CCOCC5)nc4s3)ccc2o1 [Compound 225] | < 1 | 1 to 20 (≈ 0.458 to 9.15 µg/mL) | – | – |
| O=C(Nc1ccc(-c2ccc(F)nc2)cc1)c1cc2sc(N3CCNCC3)nc2s1 [Compound 289] | < 1 | 1 to 20 (≈ 0.44 to 8.79 µg/mL) | – | – |
| O=C(Nc1ccc(N2CCC(Oc3ccc(F)cc3)CC2)cc1)c1cc2sc(N3CCOCC3)nc2s1 [Compound 220] | < 1 | > 20 | – | – |
| O=C(Nc1ccc(F)cc1)c1cc2sc(NCCN3CCOCC3)nc2s1 [Compound 302] | < 1 | 1 to 20 (≈ 0.407 to 8.13 µg/mL) | – | – |
| Cc1nc2cc(NC(=O)c3cc4sc(NCCC5CCOCC5)nc4s3)ccc2o1 [Compound 333] | < 1 | 1 to 20 (≈ 0.443 to 8.85 µg/mL) | – | – |
| O=C(Nc1ccc(-c2ccc(F)nc2)cc1)c1cc2sc(NCCN3CCOCC3)nc2s1 [Compound 288] | < 1 | < 1 | – | – |
| CN(C)c1nc2sc(C(=O)Nc3ccc4oc(-c5ccc(F)cc5)nc4c3)cc2s1 [Compound 210] | > 20 | > 20 | – | – |
| Cc1nc2cc(NC(=O)c3cc4sc(N5CCC(NC(=O)OC(C)(C)C)CC5)nc4s3)ccc2o1 [Compound 233] | < 1 | 1 to 20 (≈ 0.514 to 10.3 µg/mL) | – | – |
| CN(C)C(=O)[C@H]1CCN(c2nc3sc(C(=O)Nc4ccc(-c5ccc(F)nc5)cc4)cc3s2)C1 [Compound 298] | < 1 | < 1 | – | – |
| Cc1ccc(-c2ccc(NC(=O)c3cc4sc(NCCN5CCOCC5)nc4s3)cc2)nc1 [Compound 260] | < 1 | 1 to 20 (≈ 0.48 to 9.59 µg/mL) | – | – |
| Cc1nc2cc(NC(=O)c3cc4ccc(N5CCOCC5)nc4s3)ccc2o1 [Compound 176] | > 20 | > 20 | – | – |
| CN(C)C(=O)C1CCN(c2nc3sc(C(=O)Nc4ccc5oc(Cc6ccc(F)cc6)nc5c4)cc3s2)CC1 [Compound 219] | < 1 | 1 to 20 (≈ 0.564 to 11.3 µg/mL) | – | – |
| Cc1nc2cc(NC(=O)c3cc4sc(NCCOc5ccc(Cl)cc5)nc4s3)ccc2o1 [Compound 290] | < 1 | > 20 | – | – |
| COC(=O)c1ccc(NC(=O)c2cc3nc(N4CCCCC4)sc3s2)cc1 [Compound 13] | < 1 | 1 to 20 (≈ 0.402 to 8.03 µg/mL) | – | – |
| CN1CCCC(Nc2nc3sc(C(=O)Nc4ccc(F)cc4)cc3s2)C1 (stereo not drawn) [Compound 311] | 1 to 20 (≈ 0.391 to 7.81 µg/mL) | > 20 | – | – |
| Cc1nc2cc(NC(=O)c3cc4sc(N5CCN6CCCC6C5)nc4s3)ccc2o1 (stereo not drawn) [Compound 323] | < 1 | < 1 | – | – |

| Structure (SMILES) | MIC50 [1] [µM] | MIC50 [2] [µM] | QIM (MIC50, uM) [1] | QUM (MIC50, uM) [2] |
| --- | --- | --- | --- | --- |
| O=C(Nc1ccc(-c2ccc(F)nc2)cc1)c1cc2sc(NCCN3CCCCC3)nc2s1 [Compound 329] | < 1 | 1 to 20 (≈ 0.482 to 9.63 µg/mL) | – | – |
| O=C(Nc1ccc(F)cc1)c1cc2sc(OC3CCCCC3)nc2s1 [Compound 334] | < 1 | 1 to 20 (≈ 0.376 to 7.53 µg/mL) | – | – |
| O=C(Nc1ccc(N2CCC(O)(Cc3ccccc3)CC2)cc1)c1cc2sc(NCCN3CCOCC3)nc2s1 [Compound 294] | < 1 | > 20 | – | – |
| CN(C)C(=O)CC1CCN(c2nc3sc(C(=O)Nc4ccc(F)cc4)cc3s2)CC1 [Compound 331] | < 1 | < 1 | – | – |
| Cc1nc2cc(NC(=O)c3cc4sc(N(C)CC(O)C(F)(F)F)nc4s3)ccc2o1 (stereo not drawn) [Compound 261] | < 1 | < 1 | – | – |
| CN(CCCO)c1nc2sc(C(=O)Nc3ccc(-c4ccc(F)nc4)cc3)cc2s1 [Compound 291] | < 1 | < 1 | – | – |
| CN(CC(O)C(F)(F)F)c1nc2sc(C(=O)Nc3ccc(-c4ccc(F)nc4)cc3)cc2s1 (stereo not drawn) [Compound 339] | < 1 | < 1 | – | – |
| COCCN(C)c1nc2sc(C(=O)Nc3ccc4oc(C)nc4c3)cc2s1 [Compound 202] | < 1 | < 1 | – | – |
| Cc1nc2cc(NC(=O)c3sc4nc(N5CCOCC5)sc4c3N)ccc2o1 [Compound 230] | > 20 | > 20 | – | – |
| Cc1ccc(-c2ccc(NC(=O)c3cc4sc(N5CCC(C(=O)N(C)C)CC5)nc4s3)cc2)cn1.Cl [Compound 208] | – | – | +++ (+++ indicates <1 uM) | +++ (+++ indicates <1 uM) |
| CCN(CCOC)c1nc2sc(C(=O)Nc3ccc4oc(C)nc4c3)cc2s1 [Compound 269] | > 20 | > 20 | – | – |
| O=C(Nc1ccc(F)cc1)c1cc2sc(NCC(O)C(F)(F)F)nc2s1 (stereo not drawn) [Compound 330] | < 1 | 1 to 20 (≈ 0.405 to 8.11 µg/mL) | – | – |
| Cc1nc2cc(NC(=O)c3cc4sc(N5CCN(CCO)CC5)nc4s3)ccc2o1 [Compound 336] | < 1 | 1 to 20 (≈ 0.444 to 8.87 µg/mL) | – | – |
| COC(=O)C1CCN(C(=O)c2cc3nc(N4CCCCC4)sc3s2)CC1 [Compound 24] | > 20 | 1 to 20 (≈ 0.394 to 7.87 µg/mL) | – | – |
| CN1CCC(Nc2nc3sc(C(=O)Nc4ccc(F)cc4)cc3s2)CC1 [Compound 313] | 1 to 20 (≈ 0.391 to 7.81 µg/mL) | > 20 | – | – |
| O=C(Nc1ccc(-c2ccc(F)cn2)cc1)c1cc2sc(NCC(O)C(F)(F)F)nc2s1 (stereo not drawn) [Compound 340] | < 1 | 1 to 20 (≈ 0.482 to 9.65 µg/mL) | – | – |
| Cc1nc2cc(NC(=O)c3cc4sc(N5CCC(C(=O)c6ccc(Cl)cc6)CC5)nc4s3)ccc2o1 [Compound 205] | > 20 | > 20 | – | – |
| CN(CC(O)C(F)(F)F)c1nc2sc(C(=O)Nc3ccc(-c4ccc(F)cn4)cc3)cc2s1 (stereo not drawn) [Compound 317] | < 1 | 1 to 20 (≈ 0.497 to 9.93 µg/mL) | – | – |
| O=C(Nc1ccc(F)cn1)c1cc2sc(N3CCOCC3)nc2s1 [Compound 105] | < 1 | 1 to 20 (≈ 0.364 to 7.29 µg/mL) | – | – |
| O=C(Nc1ccc2[nH]cnc2c1)c1cc2sc(N3CCOCC3)nc2s1 [Compound 113] | > 20 | > 20 | – | – |
| CCCC(=O)Nc1nc2sc(C(=O)Nc3ccc4oc(C)nc4c3)cc2s1 [Compound 243] | < 1 | > 20 | – | – |
| Cc1nc2cc(NC(=O)c3cc4sc(NCCO)nc4s3)ccc2o1 [Compound 267] | 1 to 20 (≈ 0.374 to 7.49 µg/mL) | 1 to 20 (≈ 0.374 to 7.49 µg/mL) | – | – |
| COCCN(C)c1nc2sc(C(=O)Nc3ccc(-c4ccc(F)cc4)cn3)cc2s1 [Compound 273] | < 1 | 1 to 20 (≈ 0.443 to 8.85 µg/mL) | – | – |
| Cc1nc2cc(NC(=O)c3cc4sc(N5CC[C@@H](C(=O)N(C)C)C5)nc4s3)ccc2o1 [Compound 223] | 1 to 20 (≈ 0.456 to 9.11 µg/mL) | 1 to 20 (≈ 0.456 to 9.11 µg/mL) | – | – |
